Measurements as given in publication PMC8793051 (ACS Omega, 2022).
pIC50: −log10 of the molar value.

Tests used:
HEK = assay: MTT cytotoxicity assay; type: cell-based; conditions: Homo sapiens, HEK293, 48 h
CCRF-CEM = assay: NCI-60 SRB growth assay; type: cell-based, human
K-562 = assay: NCI-60 SRB growth assay; type: cell-based, human; conditions: Homo sapiens
MOLT-4 = assay: NCI-60 SRB growth assay; type: cell-based, human
RPMI-8226 = assay: NCI-60 SRB growth assay; type: cell-based, human; conditions: RPMI-8226
HOP-62 = assay: NCI-60 SRB growth assay; type: cell-based, human; conditions: HOP-62
NCI-H226 = assay: NCI-60 SRB growth assay; type: cell-based, human
NCI-H23 = assay: NCI-60 SRB growth assay; type: cell-based, human
COLO 205 = assay: NCI-60 SRB growth assay; type: cell-based, human; conditions: COLO 205
HCC-2998 = assay: NCI-60 SRB growth assay; type: cell-based, human
HT29 = assay: NCI-60 SRB growth assay; type: cell-based, human
SW-620 = assay: NCI-60 SRB growth assay; type: cell-based, human; conditions: Homo sapiens
SF-539 = assay: NCI-60 SRB growth assay; type: cell-based, human
SNB-75 = assay: NCI-60 SRB growth assay; type: cell-based, human
U251 = assay: NCI-60 SRB growth assay; type: cell-based, human
LOX IMVI = assay: NCI-60 SRB growth assay; type: cell-based, human
MALME-3M = assay: NCI-60 SRB growth assay; type: cell-based, human
SK-MEL-2 = assay: NCI-60 SRB growth assay; type: cell-based, human
SK-MEL-28 = assay: NCI-60 SRB growth assay; type: cell-based, human
SK-MEL-5 = assay: NCI-60 SRB growth assay; type: cell-based, human
UACC-62 = assay: NCI-60 SRB growth assay; type: cell-based, human
OVCAR-4 = assay: NCI-60 SRB growth assay; type: cell-based, human
NCI/ADR-RES = assay: NCI-60 SRB growth assay; type: cell-based, human
CAKI-1 = assay: NCI-60 SRB growth assay; type: cell-based, human
RXF 393 = assay: NCI-60 SRB growth assay; type: cell-based, human
SN12C = assay: NCI-60 SRB growth assay; type: cell-based, human
UO-31 = assay: NCI-60 SRB growth assay; type: cell-based, human
PC-3 = assay: NCI-60 SRB growth assay; type: cell-based, human
MCF7 = assay: NCI-60 SRB growth assay; type: cell-based, human
HS 578T = assay: NCI-60 SRB growth assay; type: cell-based, human
BT-549 = assay: NCI-60 SRB growth assay; type: cell-based, human; conditions: BT-549
T-47D = assay: NCI-60 SRB growth assay; type: cell-based, human
MDA-MB-468 = assay: NCI-60 SRB growth assay; type: cell-based, human; conditions: MDA-MB-468
[1] = test system: panel of 60 human cancer cell lines; assay: cells; conditions: read-out: GI50 concentration range

## CCCCN1CCN(c2ccc3[nH]c(-c4ccc5[nH]c(-c6ccc(C(F)(F)F)cc6)nc5c4)nc3c2)CC1 [12b, 5-(5-(4-Butylpiperazin-1-yl)-1H-benzo[d]imidazol-2-yl)2(4(trifluoromethyl)phenyl)-1H-benzo[d]imidazole]
HEK
  pIC50: 5.57
CCRF-CEM
  TGI: 1030 nM
CCRF-CEM; Homo sapiens
  GI50: 300 nM
CCRF-CEM; Homo sapiens, read-out: LC50
  CC50: 5040 nM
K-562; K562
  GI50: 220 nM
K-562; K562, read-out: LC50
  CC50: > 100000 nM
MOLT-4; Homo sapiens, MOLT-4
  GI50: 1070 nM
MOLT-4; Homo sapiens, MOLT-4, read-out: LC50
  CC50: 6300 nM
MOLT-4; MOLT-4
  TGI: 2500 nM
RPMI-8226; Homo sapiens
  GI50: 250 nM
RPMI-8226
  TGI: 620 nM
HOP-62
  TGI: 3050 nM
HOP-62; Homo sapiens
  GI50: 1300 nM
NCI-H226; Homo sapiens, NCI-H226
  GI50: 1570 nM
NCI-H226; NCI–H226
  TGI: 3590 nM
NCI-H23; Homo sapiens, NCI-H23
  GI50: 1650 nM
NCI-H23; Homo sapiens, NCI-H23, read-out: LC50
  CC50: 6800 nM
NCI-H23; NCI–H23
  TGI: 3360 nM
COLO 205
  TGI: 3100 nM
COLO 205; Homo sapiens
  GI50: 1300 nM
HCC-2998; HCC-2998
  TGI: 3500 nM
HCC-2998; Homo sapiens, HCC 2998
  GI50: 1800 nM
HCC-2998; Homo sapiens, HCC 2998, read-out: LC50
  CC50: 6600 nM
HT29; HT29
  TGI: 1420 nM
HT29; Homo sapiens, HT-29
  GI50: 340 nM
SW-620; SW-620
  GI50: 210 nM
SW-620; SW-620, read-out: LC50
  CC50: 450 nM
SF-539; Homo sapiens, SF-539
  GI50: 1600 nM
SF-539; Homo sapiens, SF-539, read-out: LC50
  CC50: 5800 nM
SF-539; SF-539
  TGI: 3050 nM
SNB-75; Homo sapiens, SNB-75
  GI50: 1050 nM
SNB-75; Homo sapiens, SNB-75, read-out: LC50
  CC50: 4800 nM
SNB-75; SNB-75
  TGI: 2250 nM
U251; Homo sapiens, U-251
  GI50: 240 nM
U251; U251
  TGI: 560 nM
LOX IMVI
  TGI: 1100 nM
LOX IMVI; Homo sapiens
  GI50: 380 nM
MALME-3M; Homo sapiens, Malme-3M
  GI50: 1400 nM
MALME-3M; MALME-3M
  TGI: 3000 nM
SK-MEL-2; Homo sapiens, SK-MEL-2
  GI50: 1800 nM
SK-MEL-2; Homo sapiens, SK-MEL-2, read-out: LC50
  CC50: 6300 nM
SK-MEL-2; SK-MEL-2
  TGI: 3300 nM
SK-MEL-28; Homo sapiens, SK-MEL-28
  GI50: 1700 nM
SK-MEL-28; Homo sapiens, SK-MEL-28, read-out: LC50
  CC50: 5900 nM
SK-MEL-28; SK-MEL-28
  TGI: 3100 nM
SK-MEL-5; Homo sapiens, SK-MEL-5
  GI50: 1600 nM
SK-MEL-5; Homo sapiens, SK-MEL-5, read-out: LC50
  CC50: 6200 nM
SK-MEL-5; SK-MEL-5
  TGI: 3200 nM
UACC-62; Homo sapiens, UACC-62
  GI50: 1500 nM
UACC-62; Homo sapiens, UACC-62, read-out: LC50
  CC50: 5800 nM
UACC-62; UACC-62
  TGI: 2900 nM
OVCAR-4; Homo sapiens, OVCAR-4
  GI50: 600 nM
OVCAR-4; Homo sapiens, OVCAR-4, read-out: LC50
  CC50: 5200 nM
OVCAR-4; OVCAR-4
  TGI: 1800 nM
NCI/ADR-RES
  TGI: 57700 nM
NCI/ADR-RES; Homo sapiens
  GI50: 2100 nM
NCI/ADR-RES; Homo sapiens, read-out: LC50
  CC50: > 100000 nM
CAKI-1; CAKI-1
  TGI: 2580 nM
CAKI-1; Homo sapiens, CAKI-1
  GI50: 1290 nM
CAKI-1; Homo sapiens, CAKI-1, read-out: LC50
  CC50: 5150 nM
RXF 393; Homo sapiens, RXF 393
  GI50: 470 nM
RXF 393; RXF393
  TGI: 1500 nM
SN12C; Homo sapiens, SN12C
  GI50: 1540 nM
SN12C; SN12c
  TGI: 3020 nM
UO-31; Homo sapiens, UO-31
  GI50: 1770 nM
UO-31; Homo sapiens, UO-31, read-out: LC50
  CC50: 5900 nM
UO-31; UO-31
  TGI: 3240 nM
PC-3; Homo sapiens, PC-3
  GI50: 860 nM
PC-3; Homo sapiens, PC-3, read-out: LC50
  CC50: 5500 nM
PC-3; PC-3
  TGI: 2310 nM
MCF7
  TGI: 570 nM
MCF7; Homo sapiens
  GI50: 170 nM
HS 578T; HS578T
  TGI: 3.05 - μM
HS 578T; Homo sapiens, Hs-578T
  GI50: 1260 nM
BT-549
  TGI: 3150 nM
BT-549; Homo sapiens
  GI50: 1620 nM
T-47D; Homo sapiens, T47D
  GI50: 1240 nM
T-47D; T-47D
  TGI: 3230 nM
MDA-MB-468; Homo sapiens
  GI50: 1660 nM
MDA-MB-468
  TGI: 3340 nM
[1]
  GI50: 160 to 3600 nM
